Legend:
Assay in all cases: relative viability (nuclei count vs DMSO), 5 days (fraction); higher = more cells survive
AT9283 + Luminespib = compound: O=C(Nc1c[nH]nc1-c1nc2ccc(CN3CCOCC3)cc2[nH]1)NC1CC1 [AT9283] + CCNC(=O)c1noc(-c2cc(C(C)C)c(O)cc2O)c1-c1ccc(CN2CCOCC2)cc1 [Luminespib] (partner 0.01 µM)
How it was run: (§1)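 Relative viability is defined as nuclei in treated wells over nuclei in vehicle wells. Duplicate plates were run and medians reported. Lung cancer cell lines in 1536-well plates were dosed by pin tool one day after seeding, with one drug or with a fixed anchor-drug dose plus five library-drug doses (not always all listed) in √10 steps, and nuclei were counted after 5 days.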

AT9283 + AZD7762 = compound: O=C(Nc1c[nH]nc1-c1nc2ccc(CN3CCOCC3)cc2[nH]1)NC1CC1 [AT9283] + NC(=O)Nc1cc(-c2cccc(F)c2)sc1C(=O)N[C@H]1CCCNC1 [AZD7762] (partner 0.2 µM)
How it was run: as §1

AT9283 + Decitabine = compound: O=C(Nc1c[nH]nc1-c1nc2ccc(CN3CCOCC3)cc2[nH]1)NC1CC1 [AT9283] + Nc1ncn([C@H]2C[C@H](O)[C@@H](CO)O2)c(=O)n1 [Decitabine] (partner 2 µM)
How it was run: as §1

Erlotinib + Phenformin = compound: C#Cc1cccc(Nc2ncnc3cc(OCCOC)c(OCCOC)cc23)c1 [Erlotinib] + N=C(N)NC(=N)NCCc1ccccc1 [Phenformin] (partner 250 µM)
How it was run: as §1

Erlotinib + Linsitinib = compound: C#Cc1cccc(Nc2ncnc3cc(OCCOC)c(OCCOC)cc23)c1 [Erlotinib] + C[C@]1(O)C[C@@H](c2nc(-c3ccc4ccc(-c5ccccc5)nc4c3)c3c(N)nccn32)C1 [Linsitinib] (partner 1 µM)
How it was run: as §1

Row | Cell Line | relative viability (AT9283 + Luminespib; first compound 0.003 µM) | relative viability (AT9283 + Luminespib; first compound 0.03 µM) | relative viability (AT9283 + Luminespib; first compound 0.09487 µM) | relative viability (AT9283 + Luminespib; first compound 0.3 µM) | relative viability (AT9283 + AZD7762; first compound 0.003 µM) | relative viability (AT9283 + AZD7762; first compound 0.03 µM) | relative viability (AT9283 + AZD7762; first compound 0.09487 µM) | relative viability (AT9283 + AZD7762; first compound 0.3 µM) | relative viability (AT9283 + Decitabine; first compound 0.003 µM) | relative viability (AT9283 + Decitabine; first compound 0.03 µM) | relative viability (AT9283 + Decitabine; first compound 0.09487 µM) | relative viability (AT9283 + Decitabine; first compound 0.3 µM) | relative viability (Erlotinib + Phenformin; first compound 0.02 µM) | relative viability (Erlotinib + Phenformin; first compound 0.2 µM) | relative viability (Erlotinib + Phenformin; first compound 0.6325 µM) | relative viability (Erlotinib + Phenformin; first compound 2 µM) | relative viability (Erlotinib + Linsitinib; first compound 0.02 µM) | relative viability (Erlotinib + Linsitinib; first compound 0.6325 µM) | relative viability (Erlotinib + Linsitinib; first compound 2 µM) | relative viability (Erlotinib + Linsitinib; first compound 0.2 µM)
1 | NCI-H650 | 0.771 | 0.701 | 0.242 | 0.173 | 0.814 | 0.923 | 0.373 | 0.227 | 0.319 | 0.333 | 0.229 | 0.162 | 0.424 | 0.462 | 0.449 | 0.479 | 0.817 | 1.06 | 0.843 | 
2 | LU99A | 0.24 | 0.301 | 0.225 | 0.221 | 0.457 | 0.137 | 0.139 | 0.148 | 0.868 | 0.404 | 0.195 | 0.226 | 0.942 | 0.794 | 0.886 | 0.841 | 0.616 | 0.457 | 0.446 | 0.497
3 | EKVX | 0.874 | 0.836 | 0.555 | 0.307 | 0.647 | 0.56 | 0.584 | 0.289 | 0.38 | 0.246 | 0.234 | 0.215 | 0.245 | 0.205 | 0.127 | 0.137 | 0.941 | 0.235 | 0.117 | 0.395

From the supplement of paper PMC10307832
